5 molecules from paper PMC4648050, “Discovery of Inhibitors of Trypanosoma brucei by Phenotypic Screening of a Focused Protein Kinase Library” (Chemmedchem, 2015) can be followed below.

≈ marks a conversion by molar mass, not a printed value. Read-outs that look alike come from different tables or passages of the source. Some results are limits rather than exact numbers.

As usually defined, the EC50 is the concentration giving half of the maximal effect. Broadly, the kinetic solubility is the concentration staying in solution when a stock, usually in DMSO, is diluted into the medium.

The target in one series is PAK4 (Homo sapiens, UniProt O96013). The experiment in a line: Kinase panel: PAK4. It counts as biochemical, human/mammalian. The settings on record: compound at 10 μM, read-out: % of activity respect of the control. On the procedure: (§1) The DDU kinase-focused compound set contains lead-like scaffolds that are designed to target protein kinases; they have kinase hinge binding motifs. Four of the 1H-imidazopyrazinones were screened against a human/mammalian kinase panel at the University of Dundee (http://www.kinase-screen.mrc.ac.uk) at a concentration of 10 μM. At the time of testing the panel contained 79 mammalian kinases selected to provide a broad coverage of the mammalian kinome (∼500 kinases in the human genome).[3] None of the compounds were active against any of the kinases at 10 μM.

The next series concerns the target T1, ERK8 (Homo sapiens, UniProt Q8TD08).
T1 sequence (Q8TD08 1-544): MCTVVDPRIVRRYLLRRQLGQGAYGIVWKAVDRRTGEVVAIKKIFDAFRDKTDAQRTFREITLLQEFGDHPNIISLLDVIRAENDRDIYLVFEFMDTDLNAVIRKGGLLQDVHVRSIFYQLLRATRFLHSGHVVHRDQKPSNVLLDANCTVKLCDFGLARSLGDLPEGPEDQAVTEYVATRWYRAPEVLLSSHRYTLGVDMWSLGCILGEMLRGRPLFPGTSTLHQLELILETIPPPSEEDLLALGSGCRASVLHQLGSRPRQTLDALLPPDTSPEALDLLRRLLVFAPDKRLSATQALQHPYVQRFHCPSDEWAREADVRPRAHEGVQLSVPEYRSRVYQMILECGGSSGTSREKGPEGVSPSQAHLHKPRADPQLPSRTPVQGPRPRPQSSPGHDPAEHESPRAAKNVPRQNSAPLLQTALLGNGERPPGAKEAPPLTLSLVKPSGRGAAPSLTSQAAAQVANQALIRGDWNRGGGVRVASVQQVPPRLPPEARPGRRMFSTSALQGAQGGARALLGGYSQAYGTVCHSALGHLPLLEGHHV
The experiment in a line: Kinase panel: ERK8. The format is biochemical, human/mammalian. The settings on record: compound at 10 μM, read-out: % of activity respect of the control. As for the experimental part: as §1

A further series addresses EF2K (Homo sapiens, UniProt O00418). The experiment in a line: Kinase panel: EF2K. The format is biochemical, human/mammalian. The settings on record: compound at 10 μM, read-out: % of activity respect of the control. As for the experimental part: as §1
The subject of the next series is T. b. brucei. The experiment in a line: Trypanosome proliferation assay. The format is cell-based, Trypanosoma brucei brucei. The settings on record: geometric mean of two or more determinations, standard cell viability (resazurin) assay, read-out: EC50 T. b. brucei. An outline of the steps: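 Bloodstream-stage T. brucei or MRC5 cells (MRC5 in MEM + 10% FBS), 2×10^3 per well, exposed to compounds ([…] to 0.5 nM) for 69 h at 37 °C, 5% CO2. Viability read by fluorescence after a further 4 h with 50 μM resazurin.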
On the technique in general: The colour change of resazurin is a common sign of viable cells or microbes.

A further series deals with BTK (Homo sapiens, UniProt Q06187). The experiment in a line: Kinase panel: BTK. The format is biochemical, human/mammalian. The settings on record: compound at 10 μM, read-out: % of activity respect of the control. As for the experimental part: as §1
The next series concerns the target HIPK2 (Homo sapiens, UniProt Q9H2X6). Nature of the series: Kinase panel: HIPK2. The format is biochemical, human/mammalian. Particulars: compound at 10 μM, read-out: % of activity respect of the control. On the procedure:
as §1

Another series deals with PIM1 (Homo sapiens, UniProt P11309). The experiment in a line: Kinase panel: PIM1. The settings on record: compound at 10 μM, read-out: % of activity respect of the control. It counts as biochemical, human/mammalian. As for the experimental part:
as §1

The target of another series is JNK1 (Homo sapiens, UniProt P45983). Nature of the series: Kinase panel: JNK1. The format is biochemical, human/mammalian. Particulars: compound at 10 μM, read-out: % of activity respect of the control. On the procedure: as §1
A further series addresses ERK1 (Homo sapiens, UniProt P27361). Nature of the series: Kinase panel: ERK1. It counts as biochemical, human/mammalian. Particulars: compound at 10 μM, read-out: % of activity respect of the control. On the procedure: as §1
Another series concerns the target GSK3b (Homo sapiens, UniProt P49841). Nature of the series: Kinase panel: GSK3b. The format is biochemical, human/mammalian. The settings on record: compound at 10 μM, read-out: % of activity respect of the control. As for the experimental part:
as §1

For a further series, the target named is T2, DYRK3 (Homo sapiens, UniProt O43781).
T2 sequence (O43781 1-588): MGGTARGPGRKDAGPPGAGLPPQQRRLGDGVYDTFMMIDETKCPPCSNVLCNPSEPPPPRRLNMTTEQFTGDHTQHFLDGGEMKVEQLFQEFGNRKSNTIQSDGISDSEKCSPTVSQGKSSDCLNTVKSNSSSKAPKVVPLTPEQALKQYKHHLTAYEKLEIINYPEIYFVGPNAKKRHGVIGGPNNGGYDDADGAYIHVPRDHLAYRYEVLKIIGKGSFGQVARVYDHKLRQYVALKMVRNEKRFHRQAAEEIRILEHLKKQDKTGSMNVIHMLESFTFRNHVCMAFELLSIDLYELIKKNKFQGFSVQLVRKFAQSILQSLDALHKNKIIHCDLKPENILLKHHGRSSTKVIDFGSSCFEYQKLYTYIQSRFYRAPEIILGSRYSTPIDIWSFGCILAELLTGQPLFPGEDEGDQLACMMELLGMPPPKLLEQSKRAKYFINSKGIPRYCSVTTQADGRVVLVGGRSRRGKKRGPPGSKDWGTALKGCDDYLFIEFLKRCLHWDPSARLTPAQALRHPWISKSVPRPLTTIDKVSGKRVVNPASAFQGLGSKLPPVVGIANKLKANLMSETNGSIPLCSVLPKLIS
Nature of the series: Kinase panel: DYRK3. The settings on record: compound at 10 μM, read-out: % of activity respect of the control. The format is biochemical, human/mammalian. On the procedure:
as §1

Another series concerns the target YES1 (Homo sapiens, UniProt P07947). Nature of the series: Kinase panel: YES1. The format is biochemical, human/mammalian. Particulars: compound at 10 μM, read-out: % of activity respect of the control. As for the experimental part: as §1
For a further series, the target named is MSK1 (Homo sapiens, UniProt O75582). The experiment in a line: Kinase panel: MSK1. It counts as biochemical, human/mammalian. Particulars: compound at 10 μM, read-out: % of activity respect of the control. On the procedure: as §1
Series [1] is described as follows: Kinetic aqueous solubility (laser nephelometry). The settings on record: Milli-Q water with 2.5% DMSO, kinetic from dmso stock, range 250–12 μM, read-out: Aq. Sol. (aqueous kinetic solubility). The format is physicochemical. On the procedure: Solubility experiments: The kinetic aqueous solubility of the test compounds was measured using laser nephelometry. Compounds were subject to serial dilution from 10 mM to 0.5 mM in DMSO. An aliquot was then mixed with Milli-Q H2O to obtain an aqueous dilution plate with a final concentration range of 250–12 μM, with a final DMSO concentration of 2.5 %. Triplicate aliquots were transferred to a flat-bottomed polystyrene plate which was immediately read on the NEPHELOstar (BMG Lab Technologies). The amount of laser scatter caused by insoluble particulates (relative nephelometry units, RNU) was plotted against compound concentration using a segmental regression fit, with the point of inflection being quoted as the compounds′ aqueous solubility (in μM).

The target of a further series is MST4 (Homo sapiens, UniProt Q9P289). The experiment in a line: Kinase panel: MST4. The format is biochemical, human/mammalian. The settings on record: compound at 10 μM, read-out: % of activity respect of the control. As for the experimental part:
as §1

Another series concerns the target Aurora B (Homo sapiens, UniProt Q96GD4). The experiment in a line: Kinase panel: Aurora B. The settings on record: compound at 10 μM, read-out: % of activity respect of the control. It counts as biochemical, human/mammalian. On the procedure:
as §1

Chain of JNK1 (P45983 whole entry): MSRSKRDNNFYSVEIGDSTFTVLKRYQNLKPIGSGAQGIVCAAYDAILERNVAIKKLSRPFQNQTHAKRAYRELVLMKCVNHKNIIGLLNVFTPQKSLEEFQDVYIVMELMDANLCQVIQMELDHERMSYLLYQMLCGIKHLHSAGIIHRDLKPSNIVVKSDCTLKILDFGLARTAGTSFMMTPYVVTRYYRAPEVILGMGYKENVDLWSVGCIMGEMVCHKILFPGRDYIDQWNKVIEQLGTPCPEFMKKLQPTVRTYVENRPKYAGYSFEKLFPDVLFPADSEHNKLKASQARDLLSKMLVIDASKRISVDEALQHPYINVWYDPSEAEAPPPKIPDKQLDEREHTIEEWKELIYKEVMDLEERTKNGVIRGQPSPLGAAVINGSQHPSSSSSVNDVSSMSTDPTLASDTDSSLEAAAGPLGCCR
Chain of PIM1 (P11309 whole entry): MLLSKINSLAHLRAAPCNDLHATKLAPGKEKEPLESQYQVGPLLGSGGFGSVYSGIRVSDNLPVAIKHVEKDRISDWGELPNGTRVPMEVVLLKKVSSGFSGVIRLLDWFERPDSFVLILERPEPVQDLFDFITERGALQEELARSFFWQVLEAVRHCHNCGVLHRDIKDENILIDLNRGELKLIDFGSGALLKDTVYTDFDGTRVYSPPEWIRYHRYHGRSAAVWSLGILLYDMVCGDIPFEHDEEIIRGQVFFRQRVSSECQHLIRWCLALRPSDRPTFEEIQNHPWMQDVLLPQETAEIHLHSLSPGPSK
Chain of Aurora B (Q96GD4 whole entry): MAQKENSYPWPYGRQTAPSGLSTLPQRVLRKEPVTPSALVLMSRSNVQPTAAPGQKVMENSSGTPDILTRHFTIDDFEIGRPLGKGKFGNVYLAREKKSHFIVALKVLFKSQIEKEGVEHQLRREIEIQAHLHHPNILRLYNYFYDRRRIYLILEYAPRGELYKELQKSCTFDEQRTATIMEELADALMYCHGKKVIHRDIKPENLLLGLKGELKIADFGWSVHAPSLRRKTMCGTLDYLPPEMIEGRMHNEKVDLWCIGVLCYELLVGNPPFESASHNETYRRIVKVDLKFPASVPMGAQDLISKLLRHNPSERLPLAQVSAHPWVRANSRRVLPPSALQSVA
Chain of ERK1 (P27361 whole entry): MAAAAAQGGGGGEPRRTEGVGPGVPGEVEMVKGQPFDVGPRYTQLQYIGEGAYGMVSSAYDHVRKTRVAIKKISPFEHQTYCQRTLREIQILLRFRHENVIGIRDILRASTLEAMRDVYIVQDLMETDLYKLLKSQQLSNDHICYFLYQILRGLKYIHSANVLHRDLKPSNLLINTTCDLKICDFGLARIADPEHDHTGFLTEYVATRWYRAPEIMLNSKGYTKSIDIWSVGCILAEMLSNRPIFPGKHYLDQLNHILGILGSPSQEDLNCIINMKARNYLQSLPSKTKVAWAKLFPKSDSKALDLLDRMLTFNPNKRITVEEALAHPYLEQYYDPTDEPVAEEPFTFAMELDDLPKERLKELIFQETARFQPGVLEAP
Chain of MST4 (Q9P289 whole entry): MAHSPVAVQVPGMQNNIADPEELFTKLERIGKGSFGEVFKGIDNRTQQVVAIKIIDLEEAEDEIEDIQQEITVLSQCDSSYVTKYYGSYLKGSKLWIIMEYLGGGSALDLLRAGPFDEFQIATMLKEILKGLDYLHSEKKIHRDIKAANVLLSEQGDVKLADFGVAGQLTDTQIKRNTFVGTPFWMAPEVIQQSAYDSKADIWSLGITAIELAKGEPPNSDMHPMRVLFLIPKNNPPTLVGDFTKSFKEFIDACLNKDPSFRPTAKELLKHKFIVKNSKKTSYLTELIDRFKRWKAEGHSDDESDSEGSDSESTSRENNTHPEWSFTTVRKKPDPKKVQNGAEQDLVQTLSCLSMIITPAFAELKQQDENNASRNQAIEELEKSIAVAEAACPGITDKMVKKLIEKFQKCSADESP
Chain of BTK (Q06187 whole entry): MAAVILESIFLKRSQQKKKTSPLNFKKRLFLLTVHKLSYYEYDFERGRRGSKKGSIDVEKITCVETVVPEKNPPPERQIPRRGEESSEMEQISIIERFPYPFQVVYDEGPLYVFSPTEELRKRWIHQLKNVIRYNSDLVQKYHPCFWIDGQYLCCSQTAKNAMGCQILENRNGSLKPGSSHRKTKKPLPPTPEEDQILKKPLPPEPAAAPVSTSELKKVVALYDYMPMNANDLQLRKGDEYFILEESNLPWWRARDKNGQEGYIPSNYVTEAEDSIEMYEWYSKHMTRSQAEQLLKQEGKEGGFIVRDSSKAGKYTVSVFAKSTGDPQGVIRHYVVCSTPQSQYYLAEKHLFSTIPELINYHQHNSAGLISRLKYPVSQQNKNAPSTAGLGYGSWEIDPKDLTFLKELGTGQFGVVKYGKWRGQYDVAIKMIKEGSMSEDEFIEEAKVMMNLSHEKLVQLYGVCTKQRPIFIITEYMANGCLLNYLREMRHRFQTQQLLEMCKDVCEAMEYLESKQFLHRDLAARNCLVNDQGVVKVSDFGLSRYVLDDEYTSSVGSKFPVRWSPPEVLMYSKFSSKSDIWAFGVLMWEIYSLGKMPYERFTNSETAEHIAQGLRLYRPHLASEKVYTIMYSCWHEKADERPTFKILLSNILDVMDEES
Chain of GSK3b (P49841 whole entry): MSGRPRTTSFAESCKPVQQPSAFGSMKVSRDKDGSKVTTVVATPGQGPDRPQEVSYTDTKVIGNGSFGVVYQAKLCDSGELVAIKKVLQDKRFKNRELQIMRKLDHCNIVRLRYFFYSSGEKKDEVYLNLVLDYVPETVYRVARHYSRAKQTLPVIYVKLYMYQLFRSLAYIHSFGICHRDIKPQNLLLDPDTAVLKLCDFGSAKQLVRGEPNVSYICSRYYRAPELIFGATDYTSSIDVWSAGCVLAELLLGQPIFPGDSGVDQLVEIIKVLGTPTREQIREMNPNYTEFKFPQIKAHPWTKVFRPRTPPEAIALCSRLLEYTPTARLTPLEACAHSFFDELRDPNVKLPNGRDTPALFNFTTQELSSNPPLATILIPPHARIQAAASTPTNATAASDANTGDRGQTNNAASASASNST
Chain of MSK1 (O75582 whole entry): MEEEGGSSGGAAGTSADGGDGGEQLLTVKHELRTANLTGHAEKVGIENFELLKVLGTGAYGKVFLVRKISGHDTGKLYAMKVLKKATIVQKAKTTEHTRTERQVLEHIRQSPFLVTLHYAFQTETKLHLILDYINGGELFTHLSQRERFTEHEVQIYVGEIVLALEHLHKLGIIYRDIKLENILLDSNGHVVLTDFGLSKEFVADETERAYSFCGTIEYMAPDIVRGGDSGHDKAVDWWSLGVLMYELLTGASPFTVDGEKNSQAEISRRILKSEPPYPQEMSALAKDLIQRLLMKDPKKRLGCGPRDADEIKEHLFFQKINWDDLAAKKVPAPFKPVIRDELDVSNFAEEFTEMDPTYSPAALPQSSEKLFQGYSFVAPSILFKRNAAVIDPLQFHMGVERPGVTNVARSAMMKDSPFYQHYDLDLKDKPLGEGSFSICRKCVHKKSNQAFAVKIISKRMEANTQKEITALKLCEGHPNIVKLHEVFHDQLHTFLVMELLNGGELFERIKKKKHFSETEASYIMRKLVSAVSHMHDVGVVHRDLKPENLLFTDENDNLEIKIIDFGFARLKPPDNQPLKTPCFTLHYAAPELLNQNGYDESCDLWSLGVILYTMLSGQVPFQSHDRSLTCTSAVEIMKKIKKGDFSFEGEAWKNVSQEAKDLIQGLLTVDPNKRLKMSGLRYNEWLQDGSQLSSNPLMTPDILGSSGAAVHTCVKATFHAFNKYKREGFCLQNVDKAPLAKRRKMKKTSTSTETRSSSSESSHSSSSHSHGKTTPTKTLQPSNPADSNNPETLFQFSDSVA
Chain of HIPK2 (Q9H2X6 whole entry): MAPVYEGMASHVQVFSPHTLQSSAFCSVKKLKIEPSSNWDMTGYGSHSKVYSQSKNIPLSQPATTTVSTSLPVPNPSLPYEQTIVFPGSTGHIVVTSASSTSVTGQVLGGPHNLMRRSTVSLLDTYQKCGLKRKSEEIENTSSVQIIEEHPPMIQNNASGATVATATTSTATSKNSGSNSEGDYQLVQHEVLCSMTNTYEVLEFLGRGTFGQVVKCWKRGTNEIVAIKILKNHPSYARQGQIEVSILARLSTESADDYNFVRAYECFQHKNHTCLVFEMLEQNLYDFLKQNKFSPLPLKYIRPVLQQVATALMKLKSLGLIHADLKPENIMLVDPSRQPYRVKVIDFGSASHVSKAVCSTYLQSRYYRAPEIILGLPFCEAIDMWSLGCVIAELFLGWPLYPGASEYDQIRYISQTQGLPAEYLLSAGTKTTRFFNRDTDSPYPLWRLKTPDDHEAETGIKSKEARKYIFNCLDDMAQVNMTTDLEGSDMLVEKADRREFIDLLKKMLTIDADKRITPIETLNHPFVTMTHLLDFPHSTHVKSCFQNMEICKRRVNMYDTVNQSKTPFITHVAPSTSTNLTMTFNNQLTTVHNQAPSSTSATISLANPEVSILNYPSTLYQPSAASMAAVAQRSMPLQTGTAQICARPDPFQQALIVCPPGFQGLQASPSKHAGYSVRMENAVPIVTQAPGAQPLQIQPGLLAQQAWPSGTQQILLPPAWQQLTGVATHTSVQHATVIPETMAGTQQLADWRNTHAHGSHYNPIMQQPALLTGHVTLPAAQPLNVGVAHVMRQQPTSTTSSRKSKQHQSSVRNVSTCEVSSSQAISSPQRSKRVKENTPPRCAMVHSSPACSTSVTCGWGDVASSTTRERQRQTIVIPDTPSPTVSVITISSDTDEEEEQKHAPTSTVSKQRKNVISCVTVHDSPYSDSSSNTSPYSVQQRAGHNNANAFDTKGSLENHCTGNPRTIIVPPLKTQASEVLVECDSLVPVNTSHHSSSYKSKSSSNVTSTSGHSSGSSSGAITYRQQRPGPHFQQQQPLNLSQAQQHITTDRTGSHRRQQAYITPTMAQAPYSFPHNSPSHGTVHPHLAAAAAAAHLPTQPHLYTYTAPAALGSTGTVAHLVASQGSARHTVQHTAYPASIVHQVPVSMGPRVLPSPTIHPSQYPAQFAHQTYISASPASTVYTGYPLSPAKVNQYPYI

Take `CC(c1ccccc1)n1c(=O)[nH]c2ncc(-c3ccc(F)cc3)nc21` (stereo not drawn) [Compound 1]: the remaining activity at 10 µM on PAK4 was determined as 101%; on ERK8, 73%; on EF2K, 93%; at BTK, 113%; on HIPK2 it was 101%; on PIM1 it was 80%. In addition, the remaining activity at 10 µM worked out at 95% at JNK1; 153% on ERK1; 63% at GSK3b; 109% on DYRK3; 94% at YES1; 89% at MSK1. The values for the remaining activity at 10 µM at MST4 and at Aurora B were 90% and 117%, respectively. In addition, the concentration giving a half-maximal response (EC50) in the series with T. b. brucei (Trypanosoma brucei) is 80 nM. Moreover, the solubility (kinetic) in [1] is less than 12 µM.

Regarding `O=c1[nH]c2ncc(-c3ccc(F)cc3)nc2n1CC1CC1` [Compound 10], the remaining activity at 10 µM on PAK4 came out at 106%; on ERK8, 70%; on EF2K, 92%; at BTK it was 104%; at HIPK2, 69%; on PIM1, 79%. Moreover, the remaining activity at 10 µM at JNK1 is 100%; at ERK1, 112%; at GSK3b it was 37%; on DYRK3, 108%; at YES1, 96%; on MSK1, 89%. For the same molecule, the remaining activity at 10 µM on MST4 came out at 92%; at Aurora B, 93%. The EC50 in the series on T. b. brucei (Trypanosoma brucei) was 300 nM.

Take `O=c1[nH]c2ncc(-c3ccc(F)cc3)nc2n1C1CCCCC1` [Compound 12, 1-Cyclohexyl-6-(4-fluorophenyl)-1H-imidazo[4,5-b]pyrazin-2(3H)-one]: the remaining activity at 10 µM on PAK4 came to 103%; at ERK8, 80%; at EF2K, 98%; on BTK, 111%; at HIPK2, 97%; on PIM1 it was 82%. In addition, the remaining activity at 10 µM was 95% at JNK1; 115% on ERK1; 70% on GSK3b; 99% on DYRK3; 96% at YES1; 97% on MSK1. The remaining activity at 10 µM at MST4 was 100%; on Aurora B it was 85%. For the same molecule, in the series with T. b. brucei (Trypanosoma brucei), the EC50 was 30 nM. The solubility (kinetic) in [1] was 55 µM (≈ 17.2 µg/mL).

`C[C@H](c1ccccc1)n1c(=O)[nH]c2ncc(-c3ccccc3)nc21` [Compound 14, (R)-6-Phenyl-1-(1-phenylethyl)-1H-imidazo[4,5-b]pyrazin-2(3H)-one]: the remaining activity at 10 µM at PAK4 was determined as 86%; on ERK8, 79%; at EF2K, 79%; on BTK, 97%; on HIPK2 it was 80%; at PIM1, 72%. The remaining activity at 10 µM was 97% at JNK1; 105% on ERK1; 66% at GSK3b; 100% on DYRK3; 71% on YES1; 93% on MSK1. For the same molecule, the remaining activity at 10 µM at MST4 is 88%; at Aurora B, 99%. Besides, the EC50 with T. b. brucei (Trypanosoma brucei) was found to be 100 nM. Further, the kinetic solubility in series [1] was less than 12 µM.

`O=c1[nH]c2ncc(-c3ccccc3CO)nc2n1C1CCCCC1` [Compound 28]: the EC50 was 50 nM with T. b. brucei (Trypanosoma brucei) and 46 nM with T. b. brucei. Further, in series [1], the kinetic solubility is more than 250 µM.
